# Test results as given in ChEMBL document CHEMBL1955717, “Synthesis and in vitro study of novel neuraminidase inhibitors against avian influenza virus” (Bioorg Med Chem, 2012).
# pIC50: −log10 of the molar value.
# Experiments:
# [1] = biological target: T1, Neuraminidase (Influenza A virus, UniProt B4URF0); design: species or system H7N3
# [2] = biological target: T1, Neuraminidase; design: species or system H7N1
# T1 sequence (B4URF0 whole entry): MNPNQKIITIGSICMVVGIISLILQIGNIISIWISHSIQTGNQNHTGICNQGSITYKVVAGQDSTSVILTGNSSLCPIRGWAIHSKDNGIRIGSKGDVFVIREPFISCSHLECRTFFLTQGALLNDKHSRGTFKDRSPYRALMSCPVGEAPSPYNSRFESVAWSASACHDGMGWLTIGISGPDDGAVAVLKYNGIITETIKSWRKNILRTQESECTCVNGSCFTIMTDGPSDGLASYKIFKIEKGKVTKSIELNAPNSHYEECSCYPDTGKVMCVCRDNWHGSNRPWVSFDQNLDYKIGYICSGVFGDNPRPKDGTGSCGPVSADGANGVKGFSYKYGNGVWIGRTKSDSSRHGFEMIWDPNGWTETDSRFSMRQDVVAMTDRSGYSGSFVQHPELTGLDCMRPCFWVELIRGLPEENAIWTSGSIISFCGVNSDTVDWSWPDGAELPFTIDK
SMILES,pIC50 [1],pIC50 [2]
C=CC(=O)N[C@@H]1[C@@H](NCC(C)C)CC(C(=O)O)=C[C@H]1OC(CC)CC,7.55,7.84
C=CC(=O)N[C@@H]1[C@@H](N)CC(C(=O)O)=C[C@H]1OC(CC)CC,10.00,7.50
CCC(CC)O[C@@H]1C=C(C(=O)O)C[C@H](N=[N+]=[N-])[C@H]1NC(C)=O,8.66,7.07
C/C=C/C(=O)N[C@@H]1[C@@H](N)CC(C(=O)O)=C[C@H]1OC(CC)CC,5.35,3.86
C/C=C/C(=O)N[C@@H]1[C@@H](N=[N+]=[N-])CC(C(=O)O)=C[C@H]1OC(CC)CC,4.00,4.29
